From patent publication EP2934149B1, “C6-AZASPIRO IMINOTHIADIAZINE DIOXIDES AS BACE INHIBITORS” (Merck Sharp & Dohme Corp., priority 2012, dated 2014)

Legend:
[1] = biological target: T1, purified human autoBACE-2 (Homo sapiens, UniProt Q9Y5Z0); test: BACE-2 Assay (BACE-HTRF assay); type: biochemical; settings: Ki calculated from IC50 using the Cheng-Prusoff equation; QSY7-EISEVNLDAEFC-Eu-amide substrate 200 nM final, pH 5.0, 30°C; read-out: BACE2 Ki
T1 sequence (Q9Y5Z0 63-473 limits assumed): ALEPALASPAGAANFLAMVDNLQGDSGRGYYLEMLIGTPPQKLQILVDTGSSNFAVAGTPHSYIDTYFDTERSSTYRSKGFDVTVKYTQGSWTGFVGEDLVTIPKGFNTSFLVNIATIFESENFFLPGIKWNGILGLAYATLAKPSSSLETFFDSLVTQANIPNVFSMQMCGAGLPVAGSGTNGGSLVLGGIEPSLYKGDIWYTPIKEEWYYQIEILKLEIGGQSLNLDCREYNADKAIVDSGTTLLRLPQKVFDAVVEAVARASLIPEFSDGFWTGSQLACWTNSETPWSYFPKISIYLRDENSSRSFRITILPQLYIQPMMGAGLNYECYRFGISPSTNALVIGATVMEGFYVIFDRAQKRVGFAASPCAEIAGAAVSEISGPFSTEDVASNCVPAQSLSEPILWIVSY
Protocol: Inhibitor IC50's at purified human autoBACE-2 are determined in a time-resolved endpoint proteolysis assay that measures hydrolysis of the QSY7-[…]-Eu-amide FRET peptide substrate (BACE-HTRF assay). […] Inhibitor compounds, prepared at 3x the desired final concentration in 1x BACE assay buffer (20 mM sodium acetate pH 5.0,10% glycerol, 0.1% Brij-35) supplemented with 7.5% DMSO are pre-incubated with an equal volume of autoBACE-2 enzyme diluted in 1x BACE assay buffer (final enzyme concentration 1 nM) in black 384-well NUNC plates for 30 minutes at 30°C. […] DMSO is present at 5% final concentration in the assay. Following laser excitation of sample wells at 320 nm, the fluorescence signal at 620 nm is collected for 400 ms following a 50 µs delay on a RUBYstar HTRF plate reader (BMG Labtechnologies). Raw RFU data is normalized to maximum (1.0 nM BACE/DMSO) and minimum (no enzyme/DMSO) RFU values. […] The Ki values are calculated from the IC50 using the Cheng-Prusoff equation.

[2] = biological target: soluble human BACE1 catalytic domain (Homo sapiens, UniProt P56817); test: BACE1 HTRF FRET Assay; type: biochemical; settings: Ki calculated from IC50 using the Cheng-Prusoff equation; QSY7-APPswe-Eu substrate 200 nM final, pH 5.0, 30° C
Sequence of soluble human BACE1 catalytic domain (P56817 75-416 limits assumed): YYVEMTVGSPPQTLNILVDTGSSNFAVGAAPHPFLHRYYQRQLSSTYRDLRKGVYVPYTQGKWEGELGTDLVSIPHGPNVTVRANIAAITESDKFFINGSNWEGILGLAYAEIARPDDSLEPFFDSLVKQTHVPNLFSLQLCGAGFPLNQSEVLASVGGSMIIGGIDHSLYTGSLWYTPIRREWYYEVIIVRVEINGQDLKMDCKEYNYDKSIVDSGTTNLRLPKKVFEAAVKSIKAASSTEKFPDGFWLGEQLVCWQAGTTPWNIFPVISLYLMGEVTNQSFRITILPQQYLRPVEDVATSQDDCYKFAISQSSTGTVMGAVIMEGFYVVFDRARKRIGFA
Protocol: A homogeneous time-resolved FRET assay can be used to determine IC50 values for inhibitors of the soluble human BACE1 catalytic domain. […] This substrate contains an N-terminal QSY7 moiety that serves as a quencher of the C-terminal Europium fluorophore (620nm Em). […] Inhibition of BACE1 cleavage of the QSY7-APP^swe-Eu substrate by inhibitors is manifested as a suppression of 620 nm fluorescence. […] The reactions are incubated at 30° C for 1.5 hours. The 620nm fluorescence is then read on a Rubystar HTRF plate reader (BMG Labtechnologies) using a 50 millisecond delay followed by a 400 millisecond acquisition time window. Inhibitor IC50 values are derived from non-linear regression analysis of concentration response curves.

Ki [1] [nM] | Ki [2] [nM] | Compound
25 | 32 | CN1C(=N)N[C@](C)(c2cc(NC(=O)c3ccc(F)cn3)ccc2F)[C@@]2(CCN(Cc3cscn3)C2)S1(=O)=O [Example 42]
52 | 120 | COC1CC(CN2CC[C@]3(C2)[C@@](C)(c2cc(NC(=O)c4ccc(F)cn4)ccc2F)NC(=N)N(C)S3(=O)=O)C1 (some centres unmarked) [Example 44]
40 | 54 | CN1C(=N)N[C@](C)(c2cc(NC(=O)c3ccc(F)cn3)ccc2F)[C@@]2(CCN(Cc3cccnc3)C2)S1(=O)=O [Example 46]
51 | 58 | CN1C(=N)N[C@](C)(c2cc(NC(=O)c3ccc(F)cn3)ccc2F)[C@@]2(CCN(CC3CC3)C2)S1(=O)=O [Example 47]
21 | 33 | CN1C(=N)N[C@](C)(c2cc(NC(=O)c3ccc(F)cn3)ccc2F)[C@@]2(CCN(Cc3cocn3)C2)S1(=O)=O [Example 49]
77 | 70 | CN1C(=N)N[C@](C)(c2cc(NC(=O)c3ccc(F)cn3)ccc2F)[C@@]2(CCN(Cc3cncnc3)C2)S1(=O)=O [Example 50]
184 | 151 | CN1C(=N)N[C@](C)(c2cc(NC(=O)c3ccc(F)cn3)ccc2F)[C@@]2(CCN(Cc3cnn(C)c3)C2)S1(=O)=O [Example 51]
61 | 73 | CCCCN1CC[C@]2(C1)[C@@](C)(c1cc(NC(=O)c3ccc(F)cn3)ccc1F)NC(=N)N(C)S2(=O)=O [Example 52]
61 | 84 | CN1C(=N)N[C@](C)(c2cc(NC(=O)c3ccc(F)cn3)ccc2F)[C@@]2(CCN(Cc3ccncc3)C2)S1(=O)=O [Example 53]
74 | 54 | CN1C(=N)N[C@](C)(c2cc(NC(=O)c3ccc(F)cn3)ccc2F)[C@@]2(CCN(Cc3cnco3)C2)S1(=O)=O [Example 54]
16 | 3 | COc1ccc(C(=O)Nc2ccc(F)c([C@@]3(C)NC(=N)N(C)S(=O)(=O)[C@@]34CCN(S(=O)(=O)c3ccccc3)C4)c2)nc1 [Example 59]
38 | 6 | COc1ccc(C(=O)Nc2ccc(F)c([C@@]3(C)NC(=N)N(C)S(=O)(=O)[C@@]34CCN(S(=O)(=O)c3cn(C)cn3)C4)c2)nc1 [Example 61]
24 | 12 | COc1ccc(C(=O)Nc2ccc(F)c([C@@]3(C)NC(=N)N(C)S(=O)(=O)[C@]34CCN(S(=O)(=O)c3ccccc3)C4)c2)nc1 [Example 63]
68 | 29 | COc1ccc(C(=O)Nc2ccc(F)c([C@@]3(C)NC(=N)N(C)S(=O)(=O)[C@]34CCN(S(=O)(=O)c3cn(C)cn3)C4)c2)nc1 [Example 65]
40 | 20 | COc1ccc(C(=O)Nc2ccc(F)c([C@@]3(C)NC(=N)N(C)S(=O)(=O)[C@]34CCN(S(=O)(=O)c3cn[nH]c3)C4)c2)nc1 [Example 67]

More lines, now with the values behind:

Compound | Ki [1] [nM] | Ki [2] [nM]
CN1C(=N)N[C@](C)(c2cc(NC(=O)c3ccc(F)cn3)ccc2F)C2(CCN(Cc3ccccc3)C2)S1(=O)=O (some centres unmarked) [Example 1] | 4.5 | 3.4
CN1C(=N)N[C@](C)(c2cc(NC(=O)c3ccc(F)cn3)ccc2F)C2(CCNC2)S1(=O)=O (some centres unmarked) [Example 2] | 30 | 19.5
CN1C(=N)N[C@](C)(c2cc(NC(=O)c3ccc(F)cn3)ccc2F)C2(CCN(S(C)(=O)=O)C2)S1(=O)=O (some centres unmarked) [Example 3] | 9 | 5
CC(=O)N1CCC2(C1)[C@@](C)(c1cc(NC(=O)c3ccc(F)cn3)ccc1F)NC(=N)N(C)S2(=O)=O (some centres unmarked) [Example 4] | 9 | 3.7
CN1C(=N)N[C@](C)(c2cc(NC(=O)c3ccc(F)cn3)ccc2F)C2(CCN(C(=O)C3CC3)C2)S1(=O)=O (some centres unmarked) [Example 5] | 3.1 | 2
CN1C(=N)N[C@](C)(c2cc(NC(=O)c3ccc(F)cn3)ccc2F)C2(CCN(C(=O)CC3CC3)C2)S1(=O)=O (some centres unmarked) [Example 6] | 5.2 | 2.7
CC(C)CC(=O)N1CCC2(C1)[C@@](C)(c1cc(NC(=O)c3ccc(F)cn3)ccc1F)NC(=N)N(C)S2(=O)=O (some centres unmarked) [Example 7] | 5.7 | 2.8
COc1ccc(C(=O)Nc2ccc(F)c([C@@]3(C)NC(=N)N(C)S(=O)(=O)[C@]34CCN(Cc3cocn3)C4)c2)nc1 [Example 18] | 158 | 47
COc1ccc(C(=O)Nc2ccc(F)c([C@@]3(C)NC(=N)N(C)S(=O)(=O)[C@]34CCN(Cc3cscn3)C4)c2)nc1 [Example 19] | 70 | 20
COc1ccc(C(=O)Nc2ccc(F)c([C@@]3(C)NC(=N)N(C)S(=O)(=O)[C@]34CCN(CC3CCOC3)C4)c2)nc1 (some centres unmarked) [Example 20] | 188 | 51
COc1ccc(C(=O)Nc2ccc(F)c([C@@]3(C)NC(=N)N(C)S(=O)(=O)[C@]34CCN(CC3CC(OC)C3)C4)c2)nc1 (some centres unmarked) [Example 21] | 201 | 91
COc1ccc(C(=O)Nc2ccc(F)c([C@@]3(C)NC(=N)N(C)S(=O)(=O)[C@]34CCN(Cc3ccccn3)C4)c2)nc1 [Example 22] | 79 | 26
COc1ccc(C(=O)Nc2ccc(F)c([C@@]3(C)NC(=N)N(C)S(=O)(=O)[C@]34CCN(Cc3cccnc3)C4)c2)nc1 [Example 23] | 142 | 30
COc1ccc(C(=O)Nc2ccc(F)c([C@@]3(C)NC(=N)N(C)S(=O)(=O)[C@]34CCN(CC3CC3)C4)c2)nc1 [Example 24] | 128 | 34
COc1ccc(C(=O)Nc2ccc(F)c([C@@]3(C)NC(=N)N(C)S(=O)(=O)[C@]34CCN(Cc3cncnc3)C4)c2)nc1 [Example 26] | 329 | 51
COc1ccc(C(=O)Nc2ccc(F)c([C@@]3(C)NC(=N)N(C)S(=O)(=O)[C@]34CCN(Cc3cnn(C)c3)C4)c2)nc1 [Example 27] | 388 | 54
COc1ccc(C(=O)Nc2ccc(F)c([C@@]3(C)NC(=N)N(C)S(=O)(=O)[C@]34CCN(Cc3cnco3)C4)c2)nc1 [Example 28] | 237 | 28
CN1C(=N)N[C@](C)(c2cc(NC(=O)c3ccc(F)cn3)ccc2F)[C@]2(CCN(Cc3ccccn3)C2)S1(=O)=O [Example 41] | 6 | 3
CN1C(=N)N[C@](C)(c2cc(NC(=O)c3ccc(F)cn3)ccc2F)[C@@]2(CCN(Cc3ccccn3)C2)S1(=O)=O [Example 45] | 23 | 33
COc1ccc(C(=O)Nc2ccc(F)c([C@@]3(C)NC(=N)N(C)S(=O)(=O)[C@@]34CCN(S(C)(=O)=O)C4)c2)nc1 [Example 55] | 10 | 3
CCS(=O)(=O)N1CC[C@@]2(C1)[C@@](C)(c1cc(NC(=O)c3ccc(OC)cn3)ccc1F)NC(=N)N(C)S2(=O)=O [Example 56] | 6 | 1
COc1ccc(C(=O)Nc2ccc(F)c([C@@]3(C)NC(=N)N(C)S(=O)(=O)[C@@]34CCN(S(=O)(=O)CC(C)C)C4)c2)nc1 [Example 57] | 5 | 1
COc1ccc(C(=O)Nc2ccc(F)c([C@@]3(C)NC(=N)N(C)S(=O)(=O)[C@@]34CCN(S(=O)(=O)c3ccc(F)cc3)C4)c2)nc1 [Example 58] | 20 | 3
COc1ccc(C(=O)Nc2ccc(F)c([C@@]3(C)NC(=N)N(C)S(=O)(=O)[C@@]34CCN(S(=O)(=O)C3CC3)C4)c2)nc1 [Example 60] | 4 | 1
COc1ccc(C(=O)Nc2ccc(F)c([C@@]3(C)NC(=N)N(C)S(=O)(=O)[C@@]34CCN(S(=O)(=O)CC3CCCO3)C4)c2)nc1 (some centres unmarked) [Example 62] | 19 | 3
COc1ccc(C(=O)Nc2ccc(F)c([C@@]3(C)NC(=N)N(C)S(=O)(=O)[C@]34CCN(S(=O)(=O)C3CC3)C4)c2)nc1 [Example 64] | 140 | 40
COc1ccc(C(=O)Nc2ccc(F)c([C@@]3(C)NC(=N)N(C)S(=O)(=O)[C@]34CCN(S(=O)(=O)CC3CCCO3)C4)c2)nc1 (some centres unmarked) [Example 66] | 87 | 32
COc1ccc(C(=O)Nc2ccc(F)c([C@@]3(C)NC(=N)N(C)S(=O)(=O)[C@]34CCN(S(C)(=O)=O)C4)c2)nc1 [Example 68] | 205 | 35
